Data set [1] concerns HIV. As to the kind of experiment: Inhibitory activity for HIV proliferation (HIV antigen expression in HUT-78 cells, indirect immunofluorescence assay). It is filed as cell-based. As to the method:
In the same culture as that for the MT-4 cells, HUT-78 cells (human T cell clone which is not destroyed by the infection of HIV and releases HIV) were infected with HIV in an amount of 0.4 HIV per HUT-78 cell. Immediately thereafter, a predetermined concentration of 1-[(2-hydroxyethoxy)methyl]-6-phenylthiothymine was added to the culture medium and the cells were cultured at 37° C.
Every four days, 3/4 of the culture solution was exchanged and after 12 days of incubation the number of the cells positive to an HIV antigen was counted by indirect immunofluorescence assay using HIV antiserum (positive to the coating protein and core protein of HIV) which had been obtained from an HIV-infected patient.
For comparison, a similar experiment was carried out by using 2',3'-dideoxyadenosine.

A further data set relates to HUT-78 cells. As to the kind of experiment: Toxicity to HUT-78 cells. It is filed as cell-based, human. Conditions: 100 μM.
The next data set deals with host cell. The note with it: background art statement; clinical treatment of HIV-infection; cited from earlier work.
For data set [2], the system named is HIV. As to the kind of experiment: Inhibitory activity for HIV infection (preventing the death of 50% of the MT-4 cells). The class given is cell-based. Conditions: Human immunodeficiency virus 1, MT4, 120 h, 5 days of incubation, 37° C., read-out: 50% inhibitory concentration of HIV infection. As to the method: (§1) In RPMI 1640 DM culture medium containing 20 mM of Hepes buffer solution, 10% fetal bovine serum and 20 µg/ml of gentamycin, 3×10^4 MT-4 cells (human T cell clone which is destroyed by the infection of HIV) were infected with HIV in an amount of 100 times as large as expected to cause 50% infection of the cells. Immediately thereafter, a predetermined amount of sample was added to the culture medium using 50 mg/ml sample solutions in dimethyl sulfoxide and the cells were cultured at 37° C.
(§2) After 5 days of incubation, the number of existing cells was counted to determine the concentration of the compound for preventing the death of 50% of the MT-4 cells. Separately, MT-4 cells were cultured in the same way as above except that they were not infected with HIV to determine the concentration of the compound at which 50% of the MT-4 cells were destroyed.

A short description of data set [3]: Cytotoxicity to MT-4 cells (not infected with HIV). It is filed as cell-based. The note with it: human, 5 days, 37° C., read-out: 50% cytotoxic concentration to MT-4 cells. As to the method: as §1, §2

Take `Nc1ncnc2c1ncn2[C@H]1CC[C@@H](CO)O1` [2',3'-dideoxyadenosine, reference compound]: the “prevention of the expression of the HIV antigen” value in the data set on HIV [1] (at a similar concentration to the present compound (20 μM)) is “completely prevented the expression of the antigen”. Also, the “toxicity to the HUT-78 cells” value with HUT-78 cells is given as “significant toxicity to the HUT-78 cells”.

In the case of `Cc1cn([C@H]2C[C@H](N=[N+]=[N-])[C@@H](CO)O2)c(=O)[nH]c1=O` [3'-deoxy-3'-azidothymidine], in the data set with host cell, the “toxicity in the host cell” value was “considerable toxicity in the host cell”.

Take `Cc1c(Sc2ccccc2)n(COCCO)c(=O)[nH]c1=O` [compound 1, 1-[(2-hydroxyethoxy)methyl]-6-phenylthiothymine]: the IC50 in the data set on HIV [2] worked out at 7 µM; in the data set with HIV [1] (Human immunodeficiency virus 1, HuT78, 288 h, 12 days of incubation, indirect immunofluorescence, read-out: 50% inhibitory concentration (expression of HIV antigens)), 5.2 µM. Moreover, the CC50 at 120 h in data set [3] is greater than 250 µM. For the same compound, the “prevention of the expression of the HIV antigens” value with HIV [1] (20 μM, 12 days of incubation) is on record as “completely prevented the expression of the antigens”. In addition, the “toxicity to the HUT-78 cells” value in the data set on HUT-78 cells is “no toxicity to the HUT-78 cells was observed”.

Take `Cc1cccc(Sc2c(C)c(=O)[nH]c(=O)n2COCCO)c1` [compound 7]: the IC50 in the data set on HIV [2] worked out at 5.1 µM. Moreover, the CC50 at 120 h in data set [3] is greater than 250 µM.

As to `Cc1c(Sc2cccc(Cl)c2)n(COCCO)c(=O)[nH]c1=O` [compound 10], the IC50 in the data set on HIV [2] was determined as 13 µM. Moreover, in data set [3], the CC50 at 120 h is greater than 250 µM.

On to `COc1ccccc1Sc1c(C)c(=O)[nH]c(=O)n1COCCO` [compound 12], for which the IC50 in the data set on HIV [2] was found to be 19 µM. For the same compound, in data set [3], the CC50 at 120 h was greater than 250 µM.

For the compound `COc1cccc(Sc2c(C)c(=O)[nH]c(=O)n2COCCO)c1` [compound 13], in the data set on HIV [2], the IC50 was determined as 22 µM. Besides, the CC50 at 120 h in data set [3] is greater than 250 µM.

Regarding `Cc1c(Sc2cccc([N+](=O)[O-])c2)n(COCCO)c(=O)[nH]c1=O` [compound 17], in the data set on HIV [2], the IC50 is 34 µM. Also, the CC50 at 120 h in data set [3] was greater than 250 µM.

With `Cc1c(SC2CCCCC2)n(COCCO)c(=O)[nH]c1=O` [compound 25], the IC50 in the data set on HIV [2] stood at 18 µM. Moreover, the CC50 at 120 h in data set [3] was greater than 250 µM.

Consider `Cc1c(Sc2ccccc2)n(COCCO)c(=S)[nH]c1=O` [compound 59, 1-[(2-hydroxyethoxy)methyl]-2-thio-6-phenylthiothymine], for which the IC50 in the data set on HIV [2] was 0.98 µM. Further, the CC50 at 120 h in data set [3] was 125 µM.

The values above are taken from patent publication US5112835A, “6-substituted acyclopyrimidine nucleoside derivatives and antiviral agents containing the same as active ingredient thereof” (Mitsubishi Kasei Corporation, priority 1988, dated 1992).
